Data: patent publication US20180071354A1, “SELECTIVE BREEDING METHOD OF ANTITUMOR/ANTICANCER CAMELLIA SINENSIS STRAIN, AND TEA PRODUCT OF SUCH STRAIN” (FUJIAN AGRICULTURE AND FORESTRY UNIVERSITY, priority 2015, published 2018)

What was measured:
[1] = tested on: HepG2 transplanted tumor (inoculated tumor tissue pieces); assay: In vivo antitumor testing, second and third experiments (Animal Model 2); parameters: species or system BALB/c nude mice; conditions: second experiment
Protocol: The establishment of Animal Model 2 is described below. Male BALB/c nude mice (5 to 6 weeks of age, a body weight of 15 to 16 g, certificate number: SCXK (Hu) 2012-0002) were purchased from Shanghai Silaike Experiment Animal Co., Ltd and were acclimatized for one week. A cell suspension of HepG2 cells having a concentration of 1×10^7 cells/mL was prepared using the same method as that for preparing the cell suspension for Animal Model 1. 0.2 mL of the cell suspension was subcutaneously injected into the back of each of 5 nude mice. […] Tea Product 1 and Conventional Tea Product obtained in section A of Example 3, as well as 5-fluorouracil mentioned in section B of Example 3, were examined for their in vivo antitumor activity. […] In the third experiment, nude mice of Animal Model 2 were divided into three groups, i.e. a control group (n=11), a Tea Product 1 group (n=11), and a Conventional Tea Product group (n=8). […] In all the three experiments above, each of the nude mice was sacrificed 24 hours after the termination of the treatment. The tumor was collected and weighed. The antitumor effect of a respective test substance was evaluated by virtue of the percent tumor growth inhibition (%), which was calculated using the following Equation II: E=[(F−G)/(F)]×100% (I) • E=percent tumor growth inhibition (%) • F=tumor weight of control group • G=tumor weight of respective test substance group The experimental data are expressed as mean±SEM (standard error of the mean). The experimental data were subjected to one-way analysis of variance (ANOVA) using SPSS (Statistical Package for Social Sciences) software package version 11.5, such that the difference between the groups could be evaluated. The data regarding the tumor weights of the groups were subjected to t-test. Statistical significance is indicated by p<0.05.

[2] = In vitro antitumor/anticancer testing (CCK-8), SMMC-7721; assay type: cell-based, human; conditions: SMMC-7721; 48 h
Protocol: (§1) Each of Tea Product 1 and Conventional Tea Product obtained in section A of this example was used to prepare test tea samples according to the method described below. A proper amount of the respective tea product was added into sterile water to prepare a stock solution with a concentration of 100 mg/mL, followed by using a membrane filter with a pore size of 0.22 μm to conduct vacuum filtration and sterilization. The resulting stock solution was diluted with a respective complete medium shown in Table 3 below to form test tea samples with different concentrations. In other words, the thus obtained test tea samples to be used for treating a respective cancer/tumor cell line shown in Table 3 were prepared using the same complete medium as that for the respective cancer/tumor cell line. […] Specifically, each of the aforesaid commercially available agents was subjected to the method described below to prepare comparative test samples. A proper amount of a respective commercially available agent was dissolved in phosphate-buffered saline (PBS) to prepare a stock solution with a concentration of 5 mg/mL, followed by using a membrane filter with a pore size of 0.22 μm to conduct vacuum filtration and sterilization. The resulting stock solution was diluted with a respective complete medium shown in Table 3 below to form comparative test samples with different concentrations. To be specific, the comparative test samples prepared from the respective commercially available agent have the concentrations shown in Table 2 below. The thus obtained comparative test samples to be used for treating a respective cancer/tumor cell line shown in Table 3 were prepared using the same complete medium as that for the respective cancer/tumor cell line. […] The cultivation of each cancer/tumor cell line is described as follows. […] Afterwards, a cell suspension having a cell density of 1.0×10^4 cells/mL was prepared. […] As experimental groups, the tumor/cancer cells of each cell line were treated with the test tea samples prepared from one or more of the tea products and the comparative test samples prepared from one or more of the commercially available agents as obtained in section B of this example (for more detailed information about the tea product(s) and the commercially available product (s) used to treat each cell line, please see Table 4 below). To be specific, 6 to 10 test tea samples prepared from the same tea product and having different concentrations, as well as 6 to 10 comparative test samples prepared from the same commercially available agent and having different concentrations, were utilized to treat the tumor/cancer cells of each cell line. For each experimental group, 6 repetitions of tumor/cancer treatment were performed. For the control group, 100 μL of PBS was added to a well containing the medium and the cancer/tumor cells of the respective cell line. For the blank group, 100 μL of PBS was added to a well containing a complete medium the same as that used for cultivation of the cancer/tumor cells of the respective cell line. After the treatment described above, cultivation was conducted in an incubator (37° C., 100% relative humidity, 5% CO2) for 48 hours. Subsequently, the liquid containing the medium and the sample in the well was removed, and a respective complete medium (shown in Table 3 above) containing 10% CCK-8 (Cell Counting Kit-8)(Dojindo Molecular Technologies, Inc., Cat. No. CK04-13) was added. Cultivation was performed in an incubator (37° C.) for 2 to 4 hours, followed by gently shaking.

[3] = tested on: human leukemia cell line HL-60; assay: In vitro antitumor/anticancer testing (CCK-8), HL-60; assay type: cell-based; conditions: 48 h
Protocol: as §1

[4] = tested on: human lung cancer cell line A549; assay: In vitro antitumor/anticancer testing (CCK-8), A549; assay type: cell-based; conditions: 48 h
Protocol: as §1

[5] = tested on: human ovarian cancer cell line SK-OV-3; assay: In vitro antitumor/anticancer testing (CCK-8), SK-OV-3; assay type: cell-based; conditions: 48 h
Protocol: as §1

[6] = tested on: human glioblastoma cell line U-87MG; assay: In vitro antitumor/anticancer testing (CCK-8), U-87MG; assay type: cell-based; conditions: 48 h
Protocol: as §1

[7] = 35 days, 5-fluorouracil 15.0 mg/kg per day intra-abdominal injection, Tea Product 1 0.6 mL of 10% per day intragastric gavage

Structure (SMILES): O=c1[nH]cc(F)c(=O)[nH]1 [5-fluorouracil]
- Body weight Before treatment ([1]; Animal Model 2, baseline): 17.22 g
- Body weight After treatment [1, 7]: 24.32 g
- Percent tumor growth inhibition [1, 7]: 48.96%
- Tumor weight [1, 7]: 0.034 g

Structure (SMILES): O=C(O[C@@H]1Cc2c(O)cc(O)cc2O[C@@H]1c1cc(O)c(O)c(O)c1)c1cc(O)c(O)c(O)c1 [EGCG monomer, epigallocatechin gallate]
- IC50 [2]: IC50 (μg/mL) = 77.41
- Percent growth inhibition ([3]; 2.5 μg/mL): 5.10%
- Percent growth inhibition ([3]; 5 μg/mL): 12.43%
- Percent growth inhibition ([3]; 10 μg/mL): 16.22%
- Percent growth inhibition ([3]; 20 μg/mL): 27.14%
- Percent growth inhibition ([3]; 40 μg/mL): 44.21%
- Percent growth inhibition ([3]; 80 μg/mL): 76.96%
- Percent growth inhibition ([3]; 160 μg/mL): 73.03%
- Percent growth inhibition ([3]; 320 μg/mL): 83.90%
- Percent growth inhibition ([3]; 640 μg/mL): 91.13%
- IC50 ([3]; HL-60): IC50 (μg/mL) = 44.96
- Percent growth inhibition ([4]; 0.625 μg/mL): 6.69%
- Percent growth inhibition ([4]; 1.25 μg/mL): 5.92%
- Percent growth inhibition ([4]; 2.5 μg/mL): 7.35%
- Percent growth inhibition ([4]; 5 μg/mL): 6.76%
- Percent growth inhibition ([4]; 10 μg/mL): 9.62%
- Percent growth inhibition ([4]; 20 μg/mL): 23.21%
- Percent growth inhibition ([4]; 40 μg/mL): 35.39%
- Percent growth inhibition ([4]; 80 μg/mL): 60.18%
- IC50 ([4]; A549): IC50 (μg/mL) = 59.74
- Percent growth inhibition ([5]; 0.3125 μg/mL): 2.20%
- Percent growth inhibition ([5]; 0.625 μg/mL): 3.98%
- Percent growth inhibition ([5]; 1.25 μg/mL): 3.64%
- Percent growth inhibition ([5]; 2.5 μg/mL): 5.54%
- Percent growth inhibition ([5]; 5 μg/mL): 6.15%
- Percent growth inhibition ([5]; 10 μg/mL): 4.47%
- Percent growth inhibition ([5]; 20 μg/mL): 36.88%
- Percent growth inhibition ([5]; 40 μg/mL): 81.73%
- Percent growth inhibition ([5]; 80 μg/mL): 99.42%
- IC50 ([5]; SK-OV-3): IC50 (μg/mL) = 24.05
- Percent growth inhibition ([6]; 2.5 μg/mL): 2.29%
- Percent growth inhibition ([6]; 5 μg/mL): 2.94%
- Percent growth inhibition ([6]; 10 μg/mL): 5.82%
- Percent growth inhibition ([6]; 20 μg/mL): 15.72%
- Percent growth inhibition ([6]; 40 μg/mL): 15.15%
- Percent growth inhibition ([6]; 80 μg/mL): 2.45%
- Percent growth inhibition ([6]; 160 μg/mL): 82.81%
- Percent growth inhibition ([6]; 320 μg/mL): 98.43%
- Percent growth inhibition ([6]; 640 μg/mL): 98.03%
- IC50 ([6]; U-87MG): IC50 (μg/mL) = 76.85
